Measured values reported in ChEMBL document CHEMBL1158300, “New Cephalotaxus Alkaloids from Cephalotaxus harringtonia var. drupacea” (J Nat Prod, 1996).
In brackets after ≈: the same amount, converted by molar mass.

Tested on: P388
Assay: Cytotoxicity against mouse P388 cells
Type: functional, cell-based

Point of comparison: COC(=O)C[C@](O)(CCCCC(C)C)C(=O)O[C@@H]1C(OC)=C[C@]23CCCN2CCc2cc4c(cc2[C@H]13)OCO4 [BISHOMODEOXYHARRINGTONINE], IC50 0.024 µg/mL (≈ 0.0441 µM). Against it:
- COC(=O)C[C@](O)(CCCC(C)C)C(=O)O[C@@H]1C(OC)=C[C@]23CCCN2CCc2cc4c(cc2[C@H]13)OCO4 [HOMODEOXYHARRINGTONINE] — 2.3-fold higher, 0.056 µg/mL (≈ 0.106 µM)
- COC(=O)C[C@](O)(CC(C)C)C(=O)O[C@@H]1C(OC)=C[C@]23CCCN2CCc2cc4c(cc2[C@H]13)OCO4 [NORDEOXYHARRINGTONINE] — within 1.5-fold, 0.027 µg/mL (≈ 0.0538 µM)
